Source: patent US12252490B2, “Inhibiting deubiquitinase USP25 and USP28” (Valo Health, Inc., priority 2018, dated 2025)

Target: T1, USP28 (USP28-5(1-1077)-TEV-6*His; LifeSensors) (Homo sapiens, UniProt Q96RU2)
T1 construct: construct USP28 (USP28-5(1-1077)-TEV-6*His; LifeSensors); TEV cleavage site (C); 6xHis (C); purchased LifeSensors
T1 sequence (Q96RU2 1-1077): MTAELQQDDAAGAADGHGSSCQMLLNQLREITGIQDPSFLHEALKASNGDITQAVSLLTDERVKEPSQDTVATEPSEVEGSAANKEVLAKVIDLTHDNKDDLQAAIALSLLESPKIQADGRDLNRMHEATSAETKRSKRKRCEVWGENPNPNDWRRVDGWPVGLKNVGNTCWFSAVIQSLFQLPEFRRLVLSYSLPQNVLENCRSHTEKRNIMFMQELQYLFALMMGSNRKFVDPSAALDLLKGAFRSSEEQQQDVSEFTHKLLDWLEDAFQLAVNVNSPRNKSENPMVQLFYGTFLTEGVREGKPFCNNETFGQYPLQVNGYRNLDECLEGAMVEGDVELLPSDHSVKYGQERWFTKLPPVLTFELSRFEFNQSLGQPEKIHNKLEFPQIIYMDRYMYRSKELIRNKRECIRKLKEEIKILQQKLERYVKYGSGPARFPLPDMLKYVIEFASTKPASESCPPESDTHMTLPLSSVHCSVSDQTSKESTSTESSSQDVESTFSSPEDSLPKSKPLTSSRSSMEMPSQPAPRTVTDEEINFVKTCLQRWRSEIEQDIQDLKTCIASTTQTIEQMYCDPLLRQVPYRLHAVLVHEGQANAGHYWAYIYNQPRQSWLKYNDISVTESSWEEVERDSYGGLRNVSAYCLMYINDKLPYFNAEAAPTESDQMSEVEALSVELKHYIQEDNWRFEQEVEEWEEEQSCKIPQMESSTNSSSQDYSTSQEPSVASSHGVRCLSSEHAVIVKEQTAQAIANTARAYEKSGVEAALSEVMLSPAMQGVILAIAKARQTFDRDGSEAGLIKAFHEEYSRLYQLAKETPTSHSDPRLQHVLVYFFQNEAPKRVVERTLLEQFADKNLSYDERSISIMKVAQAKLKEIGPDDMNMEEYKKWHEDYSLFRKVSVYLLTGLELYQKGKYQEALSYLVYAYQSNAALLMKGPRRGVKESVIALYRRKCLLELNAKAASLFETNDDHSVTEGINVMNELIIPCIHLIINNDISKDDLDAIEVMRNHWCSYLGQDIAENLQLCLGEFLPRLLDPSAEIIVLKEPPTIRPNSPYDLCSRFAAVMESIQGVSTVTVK
Experiment: Ubiquitin-Rhodamine 110 Assay for USP28 Activity, Example A-1(b)
Assay type: biochemical
Details: 75 pM enzyme, 25 nM Ub-Rh110, 384-well follow-up format
Method: Each assay was performed in a final volume of 20 μL in assay buffer containing 20 mM Tris-HCl (pH 8.0, (1M Tris-HCl, pH 8.0 solution; Corning 46-031-CM)), 2 mM CaCl2 (1M Calcium Chloride solution; Sigma #21114) 2 mM BME (2-Mercaptoethanol; Sigma 63689-25ML-F), 0.01% Prionex ([…] filtered, Sigma #G-0411), and 0.01% Triton X-100. Stock compound solutions were stored at −20° C. as 10 mM in DMSO. Up to 1 month prior to the assay, 2 mM test compounds were pre-dispensed into assay plates (Black, low volume; Corning #3820) and frozen at −20° C. Prestamped assay plates were allowed to come to room temperature on the day of the assay. For the screen, 100 nL of 2 mM was pre-dispensed for a final screening concentration of 10 μM (DMSO(fc)=0.5%). Enzyme (USP28, construct USP28 (USP28-5(1-1077)-TEV-6*His; LifeSensors) concentration and incubation times were optimized for the maximal signal-to-background while maintaining initial velocity conditions at a fixed substrate concentration. The final concentration of the enzyme in the assay was 400 pM. Final substrate (Ub-Rh110; Ubiquitin-Rhodamine 110, R&D Systems #U-555) concentration was 25 nM with [Ub-Rh110]<<Km. 10 μL of 2× enzyme was added to assay plates (pre-stamped with compound) either simultaneously with 2×Ub-Rh110 or preincubated with USP28 40 minutes prior to the addition of 10 μL of 2×Ub-Rh110 to compound plates. Plates were incubated stacked for 90 minutes at room temperature before fluorescence was read on the Envision (Excitation at 485 nm and Emission at 535 nm; Perkin Elmer) or on the PheraSTAR (Excitation at 485 nm and Emission at 535 nm; BMG Labtech).
For follow-up studies, each assay was performed in a final volume of 15 μL in assay buffer containing 20 mM Tris-HCl (pH 8.0, (1M Tris-HCl, pH 8.0 solution; Corning 46-031-CM)), 3 mM BME (2-Mercaptoethanol; Sigma 63689-25ML-F), 0.03% BGG (0.22 μM filtered, Sigma, G7516-25G), and 0.01% Triton X-100 (Sigma, T9284-10L). Nanoliter quantities of either an 8-point or 10-point, 3-fold serial dilution in DMSO was pre-dispensed into assay plates (Perkin Elmer, ProxiPlate-384 F Plus, #) for a final test concentration of either 25 μM to 11 nM or 25 μM to 1.3 nM, respectively. Enzyme USP28, construct USP28 (USP28-5(1-1077)-TEV-6*His; LifeSensors) concentration and incubation times were optimized for the maximal signal-to-background while maintaining initial velocity conditions at a fixed substrate concentration. The final concentration of the enzyme in the assay was 75 pM. Final substrate (Ub-Rh110; Ubiquitin-Rhodamine 110, R&D Systems #U-555) concentration was 25 nM with [Ub-Rh110]<<Km. 5 μL of 2× enzyme was added to assay plates (pre-stamped with compound) preincubated with USP28 for 30 minutes and then 5 μL of 2×Ub-Rh110 was added to assay plates. Plates were incubated stacked for 20 minutes at room temperature before 5 μL of stop solution was added (final concentration of 10 mM citric acid (Sigma, 251275-500G)). Fluorescence was read on the Envision (Excitation at 485 nm and Emission at 535 nm; Perkin Elmer) or on the PheraSTAR (Excitation at 485 nm and Emission at 535 nm; BMG Labtech).
For assay formats Examples A-1a, A-1b, and A-2, data were reported as percent inhibition compared with control wells based on the following equation: % inh=1−((FLU−AveLow)/(AveHigh−AveLow)) where FLU=measured Fluorescence, AveLow=average Fluorescence of no enzyme control (n=16), and AveHigh=average Fluorescence of DMSO control (n=16). IC50 values were determined by curve fitting of the standard 4 parameter logistic fitting algorithm included in the Activity Base software package: IDBS XE Designer Model205. Data is fitted using the Levenburg Marquardt algorithm.

Row | Compound | Assay A-1(b) (IC50 range)
1 | CCn1ccc2cc(C(=O)NC[C@@H](C)c3cc(F)c(N4CCNCC4)cc3F)cnc21 (single isomer, unassigned) [Example 2-1] | ++ (“++”: 0.2-2 μM)
2 | CCn1ccc2cc(C(=O)NC[C@H](C)c3cc(F)c(N4CCNCC4)cc3F)cnc21 (single isomer, unassigned) [Example 2-2] | + (“+”: 2-10 μM)
3 | CCn1ccc2cc(C(=O)NC[C@H](C)c3cc(F)c(N4CC5CCC(C4)N5)cc3F)cnc21 (single isomer, unassigned) [Example 2-3] | ++ (“++”: 0.2-2 μM)
4 | CCn1ccc2cc(C(=O)NC[C@@H](C)c3cc(F)c(N4CC5CCC(C4)N5)cc3F)cnc21 (single isomer, unassigned) [Example 2-4] | ++ (“++”: 0.2-2 μM)
5 | CCn1ccc2cc(C(=O)NC[C@H](C)c3cc(F)c(N4CC5CCC(C4)N5)cc3F)nnc21 (single isomer, unassigned) [Example 4-2] | ++ (“++”: 0.2-2 μM)
6 | CCn1ccc2cc(C(=O)NC[C@@H](C)c3cc(F)c(N4CC5CCC(C4)N5)cc3F)nnc21 (single isomer, unassigned) [Example 4-3] | ++ (“++”: 0.2-2 μM)
7 | CCn1ccc2cc(C(=O)NCCc3cc(F)c(N4CC5CCC(C4)N5)cc3F)cnc21 [Example 1-1, N-[2-(4-[3,8-diazabicyclo[3.2.1]octan-3-yl]-2,5-difluorophenyl)ethyl]-1-ethyl-1H-pyrrolo[2,3-b]pyridine-5-carboxamide] | +++ (“+++”: 0.05-0.2 μM)
8 | O=C(NCCc1ccc(N2CCNCC2)cc1)c1cnc2[nH]ccc2c1 [Example 1-2, N-(4-(piperazin-1-yl)phenethyl)-1H-pyrrolo[2,3-b]pyridine-5-carboxamide] | + (“+”: 2-10 μM)
9 | Cn1ccc2cc(C(=O)NCCc3ccc(N4CCNCC4)cc3)cnc21 [Example 1-3, 1-methyl-N-(4-(piperazin-1-yl)phenethyl)-1H-pyrrolo[2,3-b]pyridine-5-carboxamide] | ++ (“++”: 0.2-2 μM)
10 | CCn1ccc2cc(C(=O)NCCc3ccc(N4CCNCC4)cc3)cnc21 [Example 1-4, 1-ethyl-N-(4-(piperazin-1-yl)phenethyl)-1H-pyrrolo[2,3-b]pyridine-5-carboxamide] | +++ (“+++”: 0.05-0.2 μM)
11 | Nc1c(C(=O)NCCc2ccc(N3CCNCC3)cc2)cnc2[nH]ccc12 [Example 1-5, 4-amino-N-(4-(piperazin-1-yl)phenethyl)-1H-pyrrolo[2,3-b]pyridine-5-carboxamide] | + (“+”: 2-10 μM)
12 | CCn1ccc2cc(C(=O)NCCc3ccc(N4CC5CCC(C4)N5)cc3)cnc21 [Example 1-6, N-(4-(3,8-diazabicyclo[3.2.1]octan-3-yl)phenethyl)-1-ethyl-1H-pyrrolo[2,3-b]pyridine-5-carboxamide] | ++++ (“++++”: 0.001-0.05 μM)
13 | CCn1ccc2cc(C(=O)NCCc3cc(F)c(N4CCNCC4)cc3F)cnc21 [Example 1-7, N-(2,5-difluoro-4-(piperazin-1-yl)phenethyl)-1-ethyl-1H-pyrrolo[2,3-b]pyridine-5-carboxamide] | +++ (“+++”: 0.05-0.2 μM)
14 | O=C(NCCc1ccc(N2CCNCC2)cc1)c1cnc2c(ccn2CC(F)(F)F)c1 [Example 1-8] | +++ (“+++”: 0.05-0.2 μM)
15 | CC(C)(O)Cn1ccc2cc(C(=O)NCCc3cc(F)c(N4CC5CCC(C4)N5)cc3F)cnc21 [Example 1-9, N-(4-(3,8-diazabicyclo[3.2.1]octan-3-yl)-2,5-difluorophenethyl)-1-(2-hydroxy-2-methylpropyl)-1H-pyrrolo[2,3-b]pyridine-5-carboxamide] | − (“−”: >10 μM)
16 | CCn1ccc2cc(C(=O)NCCc3ccc(N4CC5CCC(C4)N5)c(F)c3)cnc21 [Example 1-10, N-(4-(3,8-diazabicyclo[3.2.1]octan-3-yl)-3-fluorophenethyl)-1-ethyl-1H-pyrrolo[2,3-b]pyridine-5-carboxamide] | +++ (“+++”: 0.05-0.2 μM)
17 | CCn1cc(Cl)c2cc(C(=O)NCCc3ccc(N4CCNCC4)cc3)cnc21 [Example 3-1, 3-Chloro-1-ethyl-N-[2-[4-(piperazin-1-yl)phenyl]ethyl]-1H-pyrrolo[2,3-b]pyridine-5-carboxamide] | +++ (“+++”: 0.05-0.2 μM)
18 | O=C(NCCc1ccc(N2CCNCC2)cc1)c1cnc2[nH]cc(Cl)c2c1 [Example 3-2, 3-chloro-N-(4-(piperazin-1-yl)phenethyl)-1H-pyrrolo[2,3-b]pyridine-5-carboxamide] | + (“+”: 2-10 μM)
19 | CCn1ccc2cc(C(=O)NCCc3cc(F)c(N4CC5CCC(C4)N5)cc3F)nnc21 [Example 4-1, N-[2-(4-[3,8-diazabicyclo[3.2.1]octan-3-yl]-2,5-difluorophenyl)ethyl]-7-ethyl-7H-pyrrolo[2,3-c]pyridazine-3-carboxamide] | +++ (“+++”: 0.05-0.2 μM)
20 | CCn1cc(Cl)c2cc(C(=O)NCCc3cc(F)c(N4CC5CCC(C4)N5)cc3F)nnc21 [Example 4-4, N-(4-(3,8-diazabicyclo[3.2.1]octan-3-yl)-2,5-difluorophenethyl)-5-chloro-7-ethyl-7H-pyrrolo[2,3-c]pyridazine-3-carboxamide] | +++ (“+++”: 0.05-0.2 μM)
